These results are taken from patent US20260250524A1, “METAL-PHENOLIC NANOPATTERNS AND METHODS OF MAKING AND USING THE SAME” (NORTHWESTERN UNIVERSITY, priority 2023, published 2026).

The data set can be described thus: Solubility of polyphenols in water. It is filed as physicochemical. The text has this: Methods of the disclosure can be used to design functional nanopatterns with tunable properties (e.g., mechanical properties that can be varied based on the strength of coordination between the metal ion and polyphenol). For example, the stability and mechanical properties of nanopatterns can be varied based on the strength of coordination between the metal ion and the polyphenol. […] The polymeric, multitopic structure of large polyphenols like TA can provide greater binding affinity to various substrates. These polyphenols also have other different characteristics, such as water solubility. […] This can broaden the range of ink concentrations that are suitable for tip-directed patterning.
Other inks based on different polyphenols (GA, ECG, and EGCG) were prepared according to similar protocols. […] However, ECG had limited solubility of <1 mg/mL in water. Therefore, 0.5 mg/mL was used for ECG-based inks. Unless otherwise noted, the concentration of polyphenol was 5 mg mL^−1 and the molar ratio of polyphenol to metal ion was 1:1. For GA-based inks, the molar ratio of GA to metal ion was 10:1. For the EGCG-Ni ink, the molar ratio of EGCG to Ni was 5:1. These molar ratios were determined after considering the solubility of each metal salt and the molecular weight of each polyphenol.

On to `O=C(O[C@@H]1Cc2c(O)cc(O)cc2O[C@@H]1c1ccc(O)c(O)c1)c1cc(O)c(O)c(O)c1` [ECG, epicatechin gallate], for which the solubility (in water) was < 1000 µg/mL.

Take `O=C(OC[C@H]1O[C@@H](OC(=O)c2cc(O)c(O)c(OC(=O)c3cc(O)c(O)c(O)c3)c2)[C@H](OC(=O)c2cc(O)c(O)c(OC(=O)c3cc(O)c(O)c(O)c3)c2)[C@@H](OC(=O)c2cc(O)c(O)c(OC(=O)c3cc(O)c(O)c(O)c3)c2)[C@@H]1OC(=O)c1cc(O)c(O)c(OC(=O)c2cc(O)c(O)c(O)c2)c1)c1cc(O)c(O)c(OC(=O)c2cc(O)c(O)c(O)c2)c1` [TA, Tannic acid]: the “water solubility relative to GA, ECG, and EGCG” value (comparison in words) is recorded as “substantially higher solubility”.
